Experimental data from US5369111A, “Modulator agent and use thereof” (University of Vermont, priority 1992, dated 1994).
pIC50: −log10 of the molar value.

Columns and labels:
[1] = test system: S180/A3 cells; experiment: Inhibition of population growth (cytotoxicity), MDR strain S180/A3; format: cell-based, mouse
Text: (§1) The analogs were examined in a panel of tumor cell lines of both intrinsic and acquired drug resistance, as described in Table 1. The rat colon adenocarcinoma cell lines RCC-2 and RCC-5 (ref. 13) were maintained in Ham's F12 medium supplemented with 5% heat-inactivated, fetal bovine serum (Sterile Systems. Hyclone, Logan, Utah). The two rat colon cancer cell lines differ in their degree of cellular differentiation; whereas the RCC-2 cell line is undifferentiated, the RCC-5 cell line is highly mucinous. The human epidermoid carcinoma cell line KB-3-1 and its MDR variant KB-Vl, selected by VBL treatment (ref. 14; courtesy of M. Gottesman. National Cancer Institute), was maintained in DMEM medium supplemented with 10%, heat-inactivated, fetal bovine serum. The murine sarcoma cell line […] and its MDR strains A3 and A10 selected by ADM treatment (ref. 15; courtesy of T. Tritton, Dept. Pharmacology, Univ. Vermont). were maintained in DMEM medium supplemented with 10% heat-inactivated, horse serum (Hazelton Biolog. Lenexa, Kans.). Stock cultures were subcultured twice weekly upon reaching the late exponential phase of population growth: population doubling times were 18-24 h. Antibiotics were not used in stock or experimental cultures. The MDR cell strains were grown in drug-free media for 48 h prior to experimental use.
(§2) Mid-exponential cultures were used for all assays. The RCC-2 and RCC-5 cell lines were seeded into 24-well plates at 2×10^4 cells/well and allowed to attach to the substratum for 16-18 h prior to treatment. The S180 cell lines were seeded into culture tubes at 1×10^5 cells/ml and treated immediately. Cytotoxicity was determined by quantitation of population growth after 72 h incubation by electronic particle counter (Coulter Electronics, Hialeah, Fla.). The human tumor cell lines were used in a clonogenic assay for cytotoxicity. Cells were seeded at 300 cells/dish, incubated overnight and then treated. Colonies were scored 7-11 days later. In all assays of analog modulation of drug sensitivity, the analog was added minutes prior to the addition of cytotoxic drug.

[2] = test system: S180/A10 cells; experiment: Inhibition of population growth (cytotoxicity), MDR strain S180/A10; format: cell-based, mouse; details: 4320 min
Text: as §1, §2

[3] = test system: S180 cells, parental; experiment: Inhibition of population growth (cytotoxicity), S180 sarcoma, parental; format: cell-based, mouse; details: Mus musculus; for IC70: S-180, 72 h, parental S180; for pIC50: S-180
Text: as §1, §2

[4] = test system: RCC-5 cells; experiment: Inhibition of population growth (cytotoxicity), rat colon adenocarcinoma RCC-5; format: cell-based; details: Rattus norvegicus; RCC-5, 72 h
Text: as §1, §2

[5] = test system: RCC-2 cells; experiment: Inhibition of population growth (cytotoxicity), rat colon adenocarcinoma RCC-2; format: cell-based; details: Rattus norvegicus; RCC-2, 72 h
Text: as §1, §2

[6] = test system: KB-3-1 cells; experiment: Clonogenic assay for cytotoxicity, KB-3-1 parental; format: cell-based; details: Homo sapiens
Text: as §1, §2

[7] = test system: KB-V1 cells; experiment: Clonogenic assay for cytotoxicity, MDR variant KB-V1; format: cell-based, human; details: for Relative resistance: IC50 in KB-V1 divided by IC50 of parental, Table I
Text: as §1, §2
FIG. 10 represents the potency of the analog C-20'-deoxy deethyl vincovaline as a modulator of the drug sensitivity of various cell lines: the parental S180 cell line: the two rat colon cancer cell lines, RCC-2 and RCC-5; and the human epidermoid carcinoma cell line KB-3-1 and its MDR cell strain KB-V1, which expresses very high levels of drug resistance (200-500 fold). The enhancement of sensitivity was calculated as the sensitivity index =IC50 of the drug alone divided by the IC50 of the drug+analog. The drugs examined were ADM (o), VBL (Δ), and VCR (.quadrature.). The cytotoxicity of drug and analog treatments in the KB cell lines were measured by cloning efficiencies. The arrows denote the non-toxic concentration limit of the analog in each cell line.

[8] = test system: P388 R cells; experiment: Viability (MTT test) of P388 R cells; format: cell-based, mouse; details: for resistance of P388 R cells to cytotoxic activity of the drug: FIGS. 12 to 14
Text: The sensitization of C-20'-deoxy C-20'-deethyl vincovaline (D-DEV) has been tested on sensitive and resistants P388 cell lines originating from mouse lympnoma.
The resistance to anticancerous drug has been induced on DBA2 mouses bearing P388 cells ascites and maintained by treatment with adryamycin.
This study has been carried out at least in triplicate.

[9] = A3, IC50 resistant / IC50 parental, Table II, 4320 min
[10] = IC50 in S180/A3 divided by IC50 of parental, Table I
[11] = A10, IC50 resistant / IC50 parental, Table II
[12] = IC50 in S180/A10 divided by IC50 of parental, Table I

Row | Compound | Relative resistance [1, 9] | Relative resistance [1, 10] | Relative resistance [2, 11] | Relative resistance [2, 12] | IC70 [3] [µM] | pIC50 ([3]; S180, parental, Table II) | pIC50 ([3]; S180 parental, 72 h, Table I) | pIC50 [4] | pIC50 [5] | pIC50 [6] | resistance of KB-V1 to the drug [7] [fold] | Relative resistance [7] | adriamycin cytotoxicity in P388 R cells ([8]; 0.17 to 4.31 μM, 37° C., 24 and 48 hours) | resistance of P388 R cells to cytotoxic activity of the drug [8] | vinblastine cytotoxicity towards P388 R cells ([8]; 0.00055 to 0.11 μM, 24 hours) | vincristine cytotoxicity towards P388 R cells ([8]; 0.1 nM to 0.054 μM, 24 hours)
1 | COc1cccc2c1C(=O)c1c(O)c3c(c(O)c1C2=O)C[C@@](O)(C(=O)CO)C[C@@H]3O[C@H]1C[C@H](N)[C@H](O)[C@H](C)O1 [ADM, adriamycin] | 15 | 15 | 90 | 90 | 0.2 | 7.00 | 7.00 | 7.30 | 8.00 | 7.82 | ≥ 200 | 500 | lack of adriamycin cytotoxicity | resistance of P388 R cells to cytotoxic activity |  | 
2 | CC[C@]1(O)C[C@@H]2CN(CCc3c([nH]c4ccccc34)[C@@](C(=O)OC)(c3cc4c(cc3OC)N(C)[C@H]3[C@@](O)(C(=O)OC)[C@H](OC(C)=O)[C@]5(CC)C=CCN6CC[C@]43[C@@H]65)C2)C1 [VBL, vinblastine] | 3 | 3 | 15 | 15 | 0.015 | 8.10 | 8.10 | 8.10 | 8.52 | 9.00 | ≥ 200 | 200 |  | resistance of P388 R cells to cytotoxic activity | lack of vinblastine cytotoxicity | 
3 | CC[C@]1(O)C[C@H]2CN(CCc3c([nH]c4ccccc34)[C@@](C(=O)OC)(c3cc4c(cc3OC)N(C=O)[C@H]3[C@@](O)(C(=O)OC)[C@H](OC(C)=O)[C@]5(CC)C=CCN6CC[C@]43[C@@H]65)C2)C1 [VCR, vincristine] | 10 | 7 | 20 | 17 | 0.045 | 7.52 | 7.52 | 7.82 | 8.30 | 8.70 | ≥ 200 | 400 |  | resistance of P388 R cells to cytotoxic activity |  | lack of vincristine cytotoxicity
